Patent publication US6586427B2, “Treatments for nervous disorders” (Pharmacia & Upjohn Company, priority 1998, dated 2003)

Key:
[1] = test system: muscarinic cholinergic receptors; test: interaction with muscarinic cholinergic receptors; format: binding
I-adrenerigic receptors = test: interaction with I-adrenergic receptors; format: binding
[2] = in vivo; cited from earlier work

## CCOc1ccccc1OC(c1ccccc1)C1CNCCO1 (stereo not shown) [Reboxetine]
[1]
  interaction with muscarinic cholinergic receptors: without showing any appreciable interaction
I-adrenerigic receptors
  interaction with I-adrenerigic receptors: without showing any appreciable interaction
Norepinephrine uptake
  norepinephrine uptake inhibitory activity: highly selective norepinephrine uptake inhibitor
Serotonin uptake
  serotonin uptake inhibitory activity: only marginal
Dopamine uptake
  dopamine uptake inhibitory activity: no dopamine uptake inhibitory activity
Monoamine oxidase (MAO)
  monoamine oxidase (MAO) inhibitory activity: devoid of monoamine oxidase (MAO) inhibitory activity
[2]
  effect in the 8-OH-DPAT hypothermia test: ineffective
